# Assay results: paper PMC11420776 (RSC Advances, 2024)
# What was measured:
# MALME-3M (melanoma) = test: NCI 60-cell one-dose antiproliferative screen; assay type: cell-based, human; conditions: one dose 10 μM
# [1] = system: MDA-MB-468 (breast cancer); test: NCI 60-cell one-dose antiproliferative screen; assay type: cell-based, human; conditions: one dose 10 μM
# OVCAR-3 (ovarian cancer) = test: NCI 60-cell one-dose antiproliferative screen; assay type: cell-based, human; conditions: one dose 10 μM
# PC-3 (prostate cancer) = test: NCI 60-cell one-dose antiproliferative screen; assay type: cell-based, human; conditions: one dose 10 μM
# UO-31 (renal cancer) = test: NCI 60-cell one-dose antiproliferative screen; assay type: cell-based, human; conditions: one dose 10 μM
# [2] = system: NCI-H460 (NSC lung cancer); test: NCI 60-cell one-dose antiproliferative screen; assay type: cell-based, human; conditions: one dose 10 μM
# RPMI-8226 (leukemia) = test: NCI 60-cell one-dose antiproliferative screen; assay type: cell-based, human; conditions: one dose 10 μM
# SF-268 (CNS cancer) = test: NCI 60-cell one-dose antiproliferative screen; assay type: cell-based, human; conditions: one dose 10 μM
# CCRF-CEM (leukemia) = test: NCI 60-cell one-dose antiproliferative screen; assay type: cell-based, human; conditions: one dose 10 μM
# RXF 393 (renal cancer) = test: NCI 60-cell one-dose antiproliferative screen; assay type: cell-based, human; conditions: one dose 10 μM
# DU-145 (prostate cancer) = test: NCI 60-cell one-dose antiproliferative screen; assay type: cell-based, human; conditions: one dose 10 μM
# SK-OV-3 (ovarian cancer) = test: NCI 60-cell one-dose antiproliferative screen; assay type: cell-based, human; conditions: one dose 10 μM
# MDA-MB-435 (melanoma) = test: NCI 60-cell one-dose antiproliferative screen; assay type: cell-based, human; conditions: one dose 10 μM
# HT29 (colon cancer) = test: NCI 60-cell one-dose antiproliferative screen; assay type: cell-based, human; conditions: one dose 10 μM
# [3] = system: NCI-H23 (NSC lung cancer); test: NCI 60-cell one-dose antiproliferative screen; assay type: cell-based, human; conditions: one dose 10 μM
# HCT-116 (colon cancer) = test: NCI 60-cell one-dose antiproliferative screen; assay type: cell-based, human; conditions: one dose 10 μM
# OVCAR-4 (ovarian cancer) = test: NCI 60-cell one-dose antiproliferative screen; assay type: cell-based, human; conditions: one dose 10 μM
# SF-295 (CNS cancer) = test: NCI 60-cell one-dose antiproliferative screen; assay type: cell-based, human; conditions: one dose 10 μM
# IGROV1 (ovarian cancer) = test: NCI 60-cell one-dose antiproliferative screen; assay type: cell-based, human; conditions: one dose 10 μM
# SK-MEL-2 (melanoma) = test: NCI 60-cell one-dose antiproliferative screen; assay type: cell-based, human; conditions: one dose 10 μM
# MCF7 (breast cancer) = test: NCI 60-cell one-dose antiproliferative screen; assay type: cell-based, human; conditions: one dose 10 μM
# SF-539 (CNS cancer) = test: NCI 60-cell one-dose antiproliferative screen; assay type: cell-based, human; conditions: one dose 10 μM
# OVCAR-8 (ovarian cancer) = test: NCI 60-cell one-dose antiproliferative screen; assay type: cell-based, human; conditions: one dose 10 μM
# SNB-19 (CNS cancer) = test: NCI 60-cell one-dose antiproliferative screen; assay type: cell-based, human; conditions: one dose 10 μM
# UACC-257 (melanoma) = test: NCI 60-cell one-dose antiproliferative screen; assay type: cell-based, human; conditions: one dose 10 μM
# OVCAR-5 (ovarian cancer) = test: NCI 60-cell one-dose antiproliferative screen; assay type: cell-based, human; conditions: one dose 10 μM
# HCC-2998 (colon cancer) = test: NCI 60-cell one-dose antiproliferative screen; assay type: cell-based, human; conditions: one dose 10 μM
# HOP-62 (NSC lung cancer) = test: NCI 60-cell one-dose antiproliferative screen; assay type: cell-based, human; conditions: one dose 10 μM
# A498 (renal cancer) = test: NCI 60-cell one-dose antiproliferative screen; assay type: cell-based, human; conditions: one dose 10 μM
# T-47D (breast cancer) = test: NCI 60-cell one-dose antiproliferative screen; assay type: cell-based, human; conditions: one dose 10 μM
# [4] = system: NCI-H522 (NSC lung cancer); test: NCI 60-cell one-dose antiproliferative screen; assay type: cell-based, human; conditions: one dose 10 μM
# 786-0 (renal cancer) = test: NCI 60-cell one-dose antiproliferative screen; assay type: cell-based, human; conditions: one dose 10 μM
# [5] = system: NCI-H226 (NSC lung cancer); test: NCI 60-cell one-dose antiproliferative screen; assay type: cell-based, human; conditions: one dose 10 μM
# SK-MEL-28 (melanoma) = test: NCI 60-cell one-dose antiproliferative screen; assay type: cell-based, human; conditions: one dose 10 μM
# COLO-205 (colon cancer) = test: NCI 60-cell one-dose antiproliferative screen; assay type: cell-based, human; conditions: one dose 10 μM
# UACC-62 (melanoma) = test: NCI 60-cell one-dose antiproliferative screen; assay type: cell-based, human; conditions: one dose 10 μM
# HS 578T (breast cancer) = test: NCI 60-cell one-dose antiproliferative screen; assay type: cell-based, human; conditions: one dose 10 μM
# M14 (melanoma) = test: NCI 60-cell one-dose antiproliferative screen; assay type: cell-based, human; conditions: one dose 10 μM
# HOP-92 (NSC lung cancer) = test: NCI 60-cell one-dose antiproliferative screen; assay type: cell-based, human; conditions: one dose 10 μM
# [6] = system: NCI-H322M (NSC lung cancer); test: NCI 60-cell one-dose antiproliferative screen; assay type: cell-based, human; conditions: one dose 10 μM
# HCT-15 (colon cancer) = test: NCI 60-cell one-dose antiproliferative screen; assay type: cell-based, human; conditions: one dose 10 μM
# SN12C (renal cancer) = test: NCI 60-cell one-dose antiproliferative screen; assay type: cell-based, human; conditions: one dose 10 μM
# TK-10 (renal cancer) = test: NCI 60-cell one-dose antiproliferative screen; assay type: cell-based, human; conditions: one dose 10 μM
# EKVX (NSC lung cancer) = test: NCI 60-cell one-dose antiproliferative screen; assay type: cell-based, human; conditions: one dose 10 μM
# CAKI-1 (renal cancer) = test: NCI 60-cell one-dose antiproliferative screen; assay type: cell-based, human; conditions: one dose 10 μM
# ACHN (renal cancer) = test: NCI 60-cell one-dose antiproliferative screen; assay type: cell-based, human; conditions: one dose 10 μM
# LOX IMIV (melanoma) = test: NCI 60-cell one-dose antiproliferative screen; assay type: cell-based, human; conditions: one dose 10 μM
# [7] = system: MDA-MB-231/ATCC (breast cancer); test: NCI 60-cell one-dose antiproliferative screen; assay type: cell-based, human; conditions: one dose 10 μM
# [8] = system: NCI/ADR-RES (ovarian cancer); test: NCI 60-cell one-dose antiproliferative screen; assay type: cell-based, human; conditions: one dose 10 μM
# SNB-75 (CNS cancer) = test: NCI 60-cell one-dose antiproliferative screen; assay type: cell-based, human; conditions: one dose 10 μM
# SW-620 (colon cancer) = test: NCI 60-cell one-dose antiproliferative screen; assay type: cell-based, human; conditions: one dose 10 μM
# U251 (CNS cancer) = test: NCI 60-cell one-dose antiproliferative screen; assay type: cell-based, human; conditions: one dose 10 μM
# [9] = system: 60 human tumor cell lines; test: NCI 60-cell one-dose antiproliferative screen, whole panel; assay type: cell-based; conditions: Homo sapiens, 60 cell, read-out: Mean inhibition (mean GI%)
# KM12 (colon cancer) = test: NCI 60-cell one-dose antiproliferative screen; assay type: cell-based, human; conditions: one dose 10 μM
# [10] = system: A549/ATCC (NSC lung cancer); test: NCI 60-cell one-dose antiproliferative screen; assay type: cell-based, human; conditions: one dose 10 μM
smiles,measurement,setting,value
"Cc1ccc(-c2nnc3ccc(NN=Cc4ccccc4)nn23)cc1 [Compound 4d, 6-(2-Benzylidenehydrazinyl)-3-(p-tolyl)-[1,2,4]triazolo[4,3-b]pyridazine]",GI%,MALME-3M (melanoma),— (— GI% is below 15%)
same,GI%,[1],— (— GI% is below 15%)
same,GI%,OVCAR-3 (ovarian cancer),69.65%
same,GI%,PC-3 (prostate cancer),— (— GI% is below 15%)
same,GI%,UO-31 (renal cancer),15.52%
same,GI%,[2],31.51%
same,GI%,RPMI-8226 (leukemia),19.37%
same,GI%,SF-268 (CNS cancer),42.23%
same,GI%,CCRF-CEM (leukemia),— (— GI% is below 15%)
same,GI%,RXF 393 (renal cancer),— (— GI% is below 15%)
same,GI%,DU-145 (prostate cancer),24.06%
same,GI%,SK-OV-3 (ovarian cancer),— (— GI% is below 15%)
same,GI%,MDA-MB-435 (melanoma),23.87%
same,GI%,HT29 (colon cancer),— (— GI% is below 15%)
same,GI%,[3],39.55%
same,GI%,HCT-116 (colon cancer),— (— GI% is below 15%)
same,GI%,OVCAR-4 (ovarian cancer),30.86%
same,GI%,SF-295 (CNS cancer),47.66%
same,GI%,IGROV1 (ovarian cancer),— (— GI% is below 15%)
same,GI%,SK-MEL-2 (melanoma),— (— GI% is below 15%)
same,GI%,MCF7 (breast cancer),52.06%
same,GI%,SF-539 (CNS cancer),19.19%
same,GI%,OVCAR-8 (ovarian cancer),— (— GI% is below 15%)
same,GI%,SNB-19 (CNS cancer),— (— GI% is below 15%)
same,GI%,UACC-257 (melanoma),— (— GI% is below 15%)
same,GI%,OVCAR-5 (ovarian cancer),— (— GI% is below 15%)
same,GI%,HCC-2998 (colon cancer),— (— GI% is below 15%)
same,GI%,HOP-62 (NSC lung cancer),— (— GI% is below 15%)
same,GI%,A498 (renal cancer),— (— GI% is below 15%)
same,GI%,T-47D (breast cancer),— (— GI% is below 15%)
same,GI%,[4],— (— GI% is below 15%)
same,GI%,786-0 (renal cancer),— (— GI% is below 15%)
same,GI%,[5],— (— GI% is below 15%)
same,GI%,SK-MEL-28 (melanoma),— (— GI% is below 15%)
same,GI%,COLO-205 (colon cancer),— (— GI% is below 15%)
same,GI%,UACC-62 (melanoma),— (— GI% is below 15%)
same,GI%,HS 578T (breast cancer),53.45%
same,GI%,M14 (melanoma),32.66%
same,GI%,HOP-92 (NSC lung cancer),29.46%
same,GI%,[6],— (— GI% is below 15%)
same,GI%,HCT-15 (colon cancer),30.81%
same,GI%,SN12C (renal cancer),— (— GI% is below 15%)
same,GI%,TK-10 (renal cancer),— (— GI% is below 15%)
same,GI%,EKVX (NSC lung cancer),23.07%
same,GI%,CAKI-1 (renal cancer),16.69%
same,GI%,ACHN (renal cancer),— (— GI% is below 15%)
same,GI%,LOX IMIV (melanoma),52.47%
same,GI%,[7],— (— GI% is below 15%)
same,GI%,[8],15.93%
same,GI%,SNB-75 (CNS cancer),>100%
same,GI%,SW-620 (colon cancer),— (— GI% is below 15%)
same,GI%,U251 (CNS cancer),24.9%
same,inhibition at 10 µM,[9],18.3%
same,GI%,KM12 (colon cancer),42.77%
same,GI%,[10],— (— GI% is below 15%)
